From ChEMBL document CHEMBL5537115, “New broad-spectrum and potent antibacterial agents with dual-targeting mechanism: Promoting FtsZ polymerization and disrupting bacterial membranes” (Eur J Med Chem, 2024)
Converted amounts (≈) assume the structure as drawn.

Key:
Format in all cases: functional
Streptococcus pyogenes [1] = assay: Antibacterial activity against erythromycin-resistant Streptococcus pyogenes 2 clinical isolate assessed as bacterial growth inhibition incubated for 20 hrs by CLSI based broth microdilution method
[2] = tested on: Staphylococcus epidermidis; assay: Antibacterial activity against penicillin-resistant Staphylococcus epidermidis clinical isolate assessed as bacterial growth inhibition incubated for 20 hrs by CLSI based broth microdilution method
Staphylococcus aureus [3] = assay: Antibacterial activity against Staphylococcus aureus clinical isolate assessed as bacterial growth inhibition incubated for 20 hrs by CLSI based broth microdilution method
Staphylococcus aureus [4] = assay: Antibacterial activity against penicillin-resistant Staphylococcus aureus ATCC31007 assessed as bacterial growth inhibition incubated for 20 hrs by CLSI based broth microdilution method
Staphylococcus aureus [5] = assay: Antibacterial activity against methicillin-resistant Staphylococcus aureus ATCC43300 assessed as bacterial growth inhibition incubated for 20 hrs by CLSI based broth microdilution method
Klebsiella pneumoniae = assay: Antibacterial activity against Klebsiella pneumoniae ATCC BAA-1902 assessed as bacterial growth inhibition incubated for 20 hrs by CLSI based broth microdilution method
Acinetobacter baumannii = assay: Antibacterial activity against Acinetobacter baumannii ATCC19606 assessed as bacterial growth inhibition incubated for 20 hrs by CLSI based broth microdilution method
Escherichia coli [6] = assay: Antibacterial activity against wild-type Escherichia coli BW25113 assessed as bacterial growth inhibition incubated for 20 hrs by CLSI based broth microdilution method
Escherichia coli [7] = assay: Antibacterial activity against penicillin-susceptible Escherichia coli ATCC25922 assessed as bacterial growth inhibition incubated for 20 hrs by CLSI based broth microdilution method
Enterococcus faecium [8] = assay: Antibacterial activity against vancomycin-susceptible Enterococcus faecium ATCC19434 assessed as bacterial growth inhibition incubated for 20 hrs by CLSI based broth microdilution method
Enterococcus faecalis [9] = assay: Antibacterial activity against vancomycin-susceptible Enterococcus faecalis ATCC29212 assessed as bacterial growth inhibition incubated for 20 hrs by CLSI based broth microdilution method
Streptococcus pyogenes [10] = assay: Antibacterial activity against erythromycin-susceptible Streptococcus pyogenes 1 assessed as bacterial growth inhibition incubated for 20 hrs by CLSI based broth microdilution method
Staphylococcus aureus [11] = assay: Antibacterial activity against erythromycin-susceptible Staphylococcus aureus ATCC25923 assessed as bacterial growth inhibition incubated for 20 hrs by CLSI based broth microdilution method
Bacillus pumilus = assay: Antibacterial activity against penicillin-susceptible Bacillus pumilus CMCC63202 assessed as bacterial growth inhibition incubated for 20 hrs by CLSI based broth microdilution method
Bacillus subtilis = assay: Antibacterial activity against penicillin-susceptible Bacillus subtilis ATCC9372 assessed as bacterial growth inhibition incubated for 20 hrs by CLSI based broth microdilution method
Enterococcus faecalis [12] = assay: Antibacterial activity against vancomycin-resistant Enterococcus faecalis ATCC51299 assessed as bacterial growth inhibition incubated for 20 hrs by CLSI based broth microdilution method
Enterococcus faecium [13] = assay: Antibacterial activity against vancomycin-resistant Enterococcus faecium ATCC51559 assessed as bacterial growth inhibition incubated for 20 hrs by CLSI based broth microdilution method

Row | SMILES | MIC (Streptococcus pyogenes [1]) | MIC [2] | MIC (Staphylococcus aureus [3]) | MIC (Staphylococcus aureus [4]) | MIC (Staphylococcus aureus [5]) | MIC (Klebsiella pneumoniae) | MIC (Acinetobacter baumannii) | MIC (Escherichia coli [6]) | MIC (Escherichia coli [7]) | MIC (Enterococcus faecium [8]) | MIC (Enterococcus faecalis [9]) | MIC (Streptococcus pyogenes [10]) | MIC (Staphylococcus aureus [11]) | MIC (Bacillus pumilus) | MIC (Bacillus subtilis) | MIC (Enterococcus faecalis [12]) | MIC (Enterococcus faecium [13])
1 | C[n+]1cc(-c2ccccc2)c(/C=C/c2ccc(Cl)c(Cl)c2)cc1-c1ccc(C(C)(C)C)cc1.[I-] | 4 µg/mL | 2 µg/mL | 1 µg/mL | 2 µg/mL | 1 µg/mL | > 64 µg/mL | 4 µg/mL | 8 µg/mL | > 64 µg/mL | 1 µg/mL | 2 µg/mL | 8 µg/mL | 2 µg/mL | 2 µg/mL | 2 µg/mL | 2 µg/mL | 1 µg/mL
2 | CCCCCCCOc1ccc(/C=C/c2cc(-c3ccccc3)c[n+](C)c2-c2ccccc2)cc1.[I-] | 8 µg/mL | 64 µg/mL | 8 µg/mL | 64 µg/mL | 8 µg/mL | 8 µg/mL | 2 µg/mL | 8 µg/mL | 8 µg/mL | 2 µg/mL | 4 µg/mL | 4 µg/mL | 0.25 µg/mL | 1 µg/mL | 1 µg/mL | > 64 µg/mL | 64 µg/mL
3 | CC(C)c1ccc(/C=C/c2cc(-c3ccc4ccccc4c3)[n+](C)cc2-c2ccccc2)cc1.[I-] | 4 µg/mL | 2 µg/mL | 0.5 µg/mL | 2 µg/mL | 0.5 µg/mL | 16 µg/mL | 2 µg/mL | 8 µg/mL | 64 µg/mL | 2 µg/mL | 2 µg/mL | 0.5 µg/mL | 0.5 µg/mL | 0.5 µg/mL | 0.5 µg/mL | 4 µg/mL | 2 µg/mL
4 | CCc1ccc(/C=C/c2cc(-c3ccc(C(C)(C)C)cc3)[n+](C)cc2-c2ccccc2C)cc1.[I-] | 4 µg/mL | 1 µg/mL | 0.5 µg/mL | 1 µg/mL | 0.5 µg/mL | 8 µg/mL | 2 µg/mL | > 64 µg/mL | 4 µg/mL | 1 µg/mL | 2 µg/mL | 4 µg/mL | 0.125 µg/mL | 1 µg/mL | 0.5 µg/mL | 1 µg/mL | 0.5 µg/mL
5 | C[n+]1cc(-c2ccccc2)c(/C=C/c2ccc(N3CCCCC3)cc2)cc1-c1ccc2ccccc2c1.[I-] | 2 µg/mL | 2 µg/mL | 0.5 µg/mL | 2 µg/mL | 1 µg/mL | 16 µg/mL | 2 µg/mL | 4 µg/mL | 64 µg/mL | 1 µg/mL | 1 µg/mL | 2 µg/mL | 0.5 µg/mL | 0.5 µg/mL | 1 µg/mL | 2 µg/mL | 2 µg/mL
6 | CC[C@H]1OC(=O)[C@H](C)[C@@H](O[C@H]2C[C@@](C)(OC)[C@@H](O)[C@H](C)O2)[C@H](C)[C@@H](O[C@@H]2O[C@H](C)C[C@H](N(C)C)[C@H]2O)[C@](C)(O)C[C@@H](C)CN(C)[C@H](C)[C@@H](O)[C@]1(C)O [AZITHROMYCIN] | > 64 µg/mL | > 64 µg/mL | > 64 µg/mL | > 64 µg/mL | > 64 µg/mL | 64 µg/mL (≈ 85.4 µM) | 2 µg/mL (≈ 2.67 µM) | > 64 µg/mL | 64 µg/mL (≈ 85.4 µM) | 8 µg/mL (≈ 10.7 µM) | 1 µg/mL (≈ 1.34 µM) | 0.03 µg/mL (≈ 0.0401 µM) | 0.25 µg/mL (≈ 0.334 µM) | 0.5 µg/mL (≈ 0.668 µM) | 0.25 µg/mL (≈ 0.334 µM) | > 64 µg/mL | > 64 µg/mL
7 | C[n+]1cc(-c2ccccc2)cc(/C=C/c2ccccc2[N+](=O)[O-])c1-c1ccccc1.I | 16 µg/mL | 64 µg/mL | 32 µg/mL | > 64 µg/mL | 32 µg/mL | > 64 µg/mL | 64 µg/mL | > 64 µg/mL | > 64 µg/mL | > 64 µg/mL | > 64 µg/mL | 16 µg/mL | 8 µg/mL | 64 µg/mL | 16 µg/mL | > 64 µg/mL | > 64 µg/mL
8 | CCCOc1ccc(/C=C/c2cc(-c3ccc(C(C)(C)C)cc3)[n+](C)cc2-c2ccccc2)cc1.[I-] | 2 µg/mL | 1 µg/mL | 0.5 µg/mL | 1 µg/mL | 0.5 µg/mL | 8 µg/mL | 2 µg/mL | 8 µg/mL | 4 µg/mL | 1 µg/mL | 2 µg/mL | 2 µg/mL | 0.125 µg/mL | 1 µg/mL | 0.125 µg/mL | 1 µg/mL | 1 µg/mL
